According to patent US5484940A, “Substituted 3-indolyl-5-pyrazolone compounds” (priority 1994, dated 1996):

What was measured:
human cortical neurons = assay: Inhibition of toxicity of β-amyloid peptide to human neuronal cells (alamarBlue); assay type: cell-based; settings: 50 μM β-amyloid peptide, 2-3 days; on average where more than one duplicate experiment; compound concentration not stated
Protocol: The purpose of this test is to determine the effect of 3-indolyl-5-pyrazolone compounds on the toxicity of β-amyloid peptide to neuronal cells.
Primary Human Cortical Cell Culture
Primary human cortical cultures were prepared using a modification of the procedure described by Seubert, et al.^21 Following filtration through Nitex nylon screens, cortical tissue was resuspended in a trypsin/EDTA solution (0.05% trypsin+0.53 mM EDTA in HBSS; GIBCO Laboratories, Grand Island, N.Y., USA) and kept at 37° C. for 20 minutes. The trypsin was then inactivated by resuspending the cells in serum-containing medium (MEM/FBS: Modified Eagles' Medium (MEM) containing 1% glucose, 1 mM sodium pyruvate, 1 mM glutamine, and supplemented with 10% fetal bovine serum (GIBCO). Cells were then pelleted by centrifugation and resuspended in a chemically-defined medium (MEM/B27: MEM containing B27 supplement in place of FBS; GIBCO). Polyethyleneimine (PEI; Sigma Chemical Company, St. Louis, Mo., USA)-coated 6.4 mm (96-well) dishes were rinsed once with MEM/FBS, and then seeded at 0.75 to 1.25×10^5 cells per well in 0.1 mL MEM/B27. Cultures were maintained in a H2 O-saturated incubator with an atmosphere of 95% air/5% CO 2 at 37° C. The culture medium was exchanged twice weekly. Cell viability was visually assessed by phase contrast microscopy and quantified by measuring the reduction of alamarBlue™ (Alamar Biosciences, Inc., Sacramento, Calif., USA).
β-amyloid peptide stock solutions were prepared as 1 mM stocks in sterile, doubly distilled water immediately prior to addition to cultures. Rat cortical neurons were exposed to β-amyloid peptide by removing the culture medium and replacing it with DMEM/N2 (GIBCO Laboratories,Grand Island, N.Y., USA) containing 10 to 20 μM β-amyloid peptide. Human cortical neurons were exposed to test compound plus β-amyloid peptide by removing the culture medium and replacing it with MEM containing 50 μM β-amyloid peptide. Cultures were maintained for 2-3 days before neuronal survival was quantified using alamarBlue™.
The alamarBlue™ assay incorporates a fluorometric/colorimetric metabolic indicator (Alamar Biosciences, Inc. Sacramento, Calif., USA). Viable cells convert alamarBlue™ from an oxidized (non-fluorescent, blue) form to a reduced (fluorescent, red) form. Assays were preformed by replacing the culture media with a 10% alamarBlue™ solution in DMEM (rat cortical cultures) or MEM (human cortical cultures).

293 751 SWE cells = assay: Cytotoxicity (MTT) in 293 751 SWE cells; assay type: cell-based, human; settings: concentration not given
Protocol: (§1) This screening assay employed cells (K293=human kidney cell line) which were stably transfected with the gene for amyloid precursor protein 751 (APP751) containing the double mutation Lys651 Met652 to Asn651 Leu652 (APP751 numbering) in the manner described in International Patent Application Publication No. 94/10569^1 and Citron et al.^16. This mutation is commonly called the Swedish mutation and the cells, designated as "293 751 SWE", were plated in Coming 96-well plates at 1.5-2.5×10^4 cells per well in Dulbecco's minimal essential media plus 10% fetal bovine serum. Cell number is important in order to achieve β-amyloid ELISA results within the linear range of the assay (~0.2 to 2.5 ng per mL).
Cytotoxic effects of the compounds were measured by a modification of the method of Hansen, et al.^17. To the cells remaining in the tissue culture plate was added 25 μL of a 3,(4,5-dimethylthiazol-2-yl)2,5-diphenyltetrazolium bromide (MTT) stock solution (5 mg/mL) to a final concentration of 1 mg/mL. Cells were incubated at 37° C. for one hour, and cellular activity was stopped by the addition of an equal volume of MTT lysis buffer (20% w/v sodium dodecylsulfate in 50% dimethylformamide, pH 4.7). Complete extraction was achieved by overnight shaking at room temperature. The difference in the OD562nm and the OD650nm was measured in a Molecular Device's UVmax microplate reader as an indicator of the cellular viability.

[1] = test system: β-amyloid peptide production; assay: Cellular screen for inhibitors of β-amyloid production (ELISA, 293 751 SWE cells); assay type: cell-based, human; settings: 2 h pretreatment + 2 h, normalized for cytotoxicity (MTT), concentration not given
Protocol: as §1
Following overnight incubation at 37° C. in an incubator equilibrated with 10% carbon dioxide, media were removed and replaced with 200 μL of a substituted 3-indolyl-5-pyrazolone (drug) containing media per well for a two hour pretreatment period and cells were incubated as above.
At the end of the pretreatment period, the media were again removed and replaced with fresh drag containing media as above and cells were incubated for an additional two hours. After treatment, plates were centrifuged in a Beckman GPR at 1200 rpm for five minutes at room temperature to pellet cellular debris from the conditioned media. From each well, 100 μL of conditioned media or appropriate dilutions thereof were transferred into an ELISA plate precoated with antibody 266 against amino acids 13-28 of β-amyloid peptide as described in International Patent Application Publication No. 94/10569^1 and stored at 4° C. overnight. An ELISA assay employing labelled antibody 6C6 against amino acids 1-16 of β-amyloid peptide was run the next day to measure the amount of β-amyloid peptide produced.
The results of the β-amyloid peptide ELISA were fit to a standard curve and expressed as ng/mL β-amyloid peptide. […] All results are the mean and standard deviation of at least six replicate assays.

Compound	inhibition of the toxicity of β-amyloid peptide to human neuronal cells (human cortical neurons)	cytotoxic effect on the 293 751 SWE cells (293 751 SWE cells)	reduction of β-amyloid peptide production as compared to control [1]
COc1ccc2c(c1)c(CC1=NN(C3CCC3)C(=O)C1)c(C)n2C(=O)c1ccc(Cl)cc1 [Example 10, 3-[1-(4-chlorobenzoyl)-5-methoxy-2-methyl-3-indolylmethyl]-1-cyclobutyl-5-pyrazolone]	at least 25%		
O=C1CC(Cc2cn(C(=O)c3ccc(Cl)cc3)c3ccccc23)=NN1C1CCCCC1 [Example 19, 3-[1-(4-chlorobenzoyl)-3-indolylmethyl]-1-cyclohexyl-5-pyrazolone]	at least 25%	did not have a significant cytotoxic effect	at least 20%
COc1ccc2c(c1)c(CC1=NN(c3cccc(C)c3)C(=O)C1)c(C)n2C(=O)c1ccc(Cl)cc1 [Example 31, 3-[1-(4-chlorobenzoyl)-5-methoxy-2-methyl-3-indolylmethyl]-1-(3-methylphenyl)-5-pyrazolone]	at least 25%	did not have a significant cytotoxic effect	at least 20%
COc1ccc2c(c1)c(CC1=NN(c3cccc(F)c3)C(=O)C1)c(C)n2C(=O)c1ccc(Cl)cc1 [Example 32, 3-[1-(4-chlorobenzoyl)-5-methoxy-2-methyl-3-indolylmethyl]-1-(3-fluorophenyl)-5-pyrazolone]	at least 25%	did not have a significant cytotoxic effect	at least 20%
COc1ccc2c(c1)c(CC1=NN(c3cccc(N)c3)C(=O)C1)c(C)n2C(=O)c1ccc(Cl)cc1 [Example 40, 3-[1-(4-chlorobenzoyl)-5-methoxy-2-methyl-3-indolylmethyl]-1-(3-aminophenyl)-5-pyrazolone]	at least 25%		< 20%
COc1ccc2c(c1)c(CC1=NN(C3CCCCC3)C(=O)C1=Cc1ccccc1)c(C)n2C(=O)c1ccc(Cl)cc1 [Example 45, 3-[1-(4-chlorobenzoyl)-5-methoxy-2-methyl-3-indolylmethyl]-1-cyclohexyl-4-benzylidene-5-pyrazolone]	< 25%		< 20%
Cc1c(CC2=NN(C3CCCCC3)C(=O)C2)c2cc(Cl)ccc2n1C(=O)c1ccc(Cl)cc1 [Example 62, 3-[1-chlorobenzoyl-5-chloro-2-methyl-3-indolylmethyl]-1-cyclohexyl-5-pyrazolone]		did not have a significant cytotoxic effect	at least 20%
Cc1c(CC2=NN(c3cccc(C(F)(F)F)c3)C(=O)C2)c2cc(Cl)ccc2n1C(=O)c1ccc(Cl)cc1 [Example 63, 3-[1-(4-chlorobenzoyl)-5-chloro-2-methyl-3-indolylmethyl]-1-(3-trifluoromethylphenyl)-5-pyrazolone]		did not have a significant cytotoxic effect	at least 20%
